Activity calls are given as the source filed them.

The values below come from ChEMBL document CHEMBL1201862, “PubChem BioAssay data set” (2004).

The target of experiment [1] is FAD-linked sulfhydryl oxidase ALR (Homo sapiens, UniProt P55789). Nature of the experiment: ALR-catalysed DTT oxidation blockers – biochemical, H2O2 detection, luminescence, cherry-pick, dose response (AID 493248).
In experiment [2] the target is T1, Interleukin-8 (Homo sapiens, UniProt P10145). Nature of the experiment: Dose Response confirmation of uHTS small molecule hits for cystic fibrosis induced NFkb Inhibitors in a TNFa-induced IL8 counterscreen. The experiment is classed as functional. Particulars: read-out: IC50_Mean. For orientation: A counterscreen serves to expose hits that act by an unwanted route or on another target.

In experiment [3] the target is T1, Interleukin-8. Nature of the experiment: Dose Response confirmation of uHTS small molecule hits for cystic fibrosis induced NFkb Inhibitors in a PAF-induced IL8 counterscreen. The experiment is classed as functional. Particulars: read-out: IC50_Mean.
Experiment [4] in a line: Counterscreen for activators of the function of SWI/SNF related, matrix associated, actin dependent regulator of chromatin, subfamily a, member 2 (SMARCA2, BRM): Luminescence-based cell-based high throughput dose response assay to identify non-selective compounds using the VP16 reporter assay. It is filed as functional.
Experiment [5] deals with DNA repair and recombination protein RAD54-like (Homo sapiens, UniProt Q92698). In words: RAD54 Holliday junction migration blockers – biochemical, fluorescence, cherry-picked samples, dose series, confirmation (AID 651657). The experiment is classed as functional.
Experiment [6] is described as follows: Trypanosoma cruzi growth suppression in host cells – NIH3T3 host cells, beta-gal luminescence, confirmation (AID 2044).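 Note: intracellular parasites grown in NIH/3T3 mouse fibroblasts as host cells; luminescent beta-galactosidase reporter signal from transgenic T. cruzi replicating inside host cells; inhibitors lower the luminescence signal.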 It is filed as functional, cell-based.
Experiment [7] addresses SWI/SNF-related matrix-associated actin-dependent regulator of chromatin subfamily A member 2 (Homo sapiens, UniProt P51531). Nature of the experiment: Luminescence-based cell-based high throughput dose response assay to identify activators of the function of SWI/SNF related, matrix associated, actin dependent regulator of chromatin, subfamily a, member 2 (SMARCA2, BRM). It is filed as functional.

The nature of experiment [8]: NIH3T3 cell viability loss – ATP luminescence, mouse fibroblasts, counter-screen, dose response (AID 2010).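 Note: cells exposed to compound for about 90 hours before reading.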 The experiment is classed as functional, cell-based.
Experiment [9] concerns the target T2, Apoptotic protease-activating factor 1 (Homo sapiens, UniProt O14727).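 Note: caspase-3 cleavage of fluorogenic Rh110 DEVD substrate downstream of apoptosome activation.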
T2 sequence (O14727 whole entry): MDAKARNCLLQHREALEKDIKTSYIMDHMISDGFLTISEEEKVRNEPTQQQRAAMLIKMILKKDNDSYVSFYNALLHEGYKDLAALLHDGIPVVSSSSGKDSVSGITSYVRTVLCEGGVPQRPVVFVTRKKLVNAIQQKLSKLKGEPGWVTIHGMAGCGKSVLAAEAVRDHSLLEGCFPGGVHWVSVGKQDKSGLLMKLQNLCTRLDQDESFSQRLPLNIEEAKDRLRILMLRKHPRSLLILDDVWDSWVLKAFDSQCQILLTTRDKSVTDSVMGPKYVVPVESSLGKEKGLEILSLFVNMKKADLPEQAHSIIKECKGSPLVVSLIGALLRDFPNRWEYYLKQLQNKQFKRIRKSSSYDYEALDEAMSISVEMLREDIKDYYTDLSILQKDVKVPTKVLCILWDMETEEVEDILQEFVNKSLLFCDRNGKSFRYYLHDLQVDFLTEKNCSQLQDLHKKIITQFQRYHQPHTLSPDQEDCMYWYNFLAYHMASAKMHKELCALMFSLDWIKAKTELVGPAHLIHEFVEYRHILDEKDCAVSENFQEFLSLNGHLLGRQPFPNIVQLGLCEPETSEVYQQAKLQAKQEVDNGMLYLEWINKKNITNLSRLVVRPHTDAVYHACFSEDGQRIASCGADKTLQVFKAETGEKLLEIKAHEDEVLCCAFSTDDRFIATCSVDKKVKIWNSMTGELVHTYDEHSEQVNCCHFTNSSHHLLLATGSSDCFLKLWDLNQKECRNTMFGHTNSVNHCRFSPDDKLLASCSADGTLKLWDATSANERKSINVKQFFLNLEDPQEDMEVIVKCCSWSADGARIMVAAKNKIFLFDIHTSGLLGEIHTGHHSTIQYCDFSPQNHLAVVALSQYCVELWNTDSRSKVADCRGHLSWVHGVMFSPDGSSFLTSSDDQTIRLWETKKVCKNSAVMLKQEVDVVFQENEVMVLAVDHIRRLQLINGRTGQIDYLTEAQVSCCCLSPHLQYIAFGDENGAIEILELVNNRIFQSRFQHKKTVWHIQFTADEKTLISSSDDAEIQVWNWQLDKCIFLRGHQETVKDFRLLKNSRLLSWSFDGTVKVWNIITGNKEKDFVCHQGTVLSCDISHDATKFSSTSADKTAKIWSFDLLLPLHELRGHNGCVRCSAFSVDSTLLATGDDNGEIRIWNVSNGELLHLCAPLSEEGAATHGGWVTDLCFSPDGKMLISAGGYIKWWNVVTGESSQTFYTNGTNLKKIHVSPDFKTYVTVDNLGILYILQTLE
Nature of the experiment: SAR analysis of small molecule Activators of Apaf-1 in a Fluorescent assay. The experiment is classed as functional. Particulars: read-out: EC50_Mean.

In experiment [10] the target is T3, Heat shock factor protein 1 (Mus musculus, UniProt P38532).
T3 sequence (P38532 whole entry): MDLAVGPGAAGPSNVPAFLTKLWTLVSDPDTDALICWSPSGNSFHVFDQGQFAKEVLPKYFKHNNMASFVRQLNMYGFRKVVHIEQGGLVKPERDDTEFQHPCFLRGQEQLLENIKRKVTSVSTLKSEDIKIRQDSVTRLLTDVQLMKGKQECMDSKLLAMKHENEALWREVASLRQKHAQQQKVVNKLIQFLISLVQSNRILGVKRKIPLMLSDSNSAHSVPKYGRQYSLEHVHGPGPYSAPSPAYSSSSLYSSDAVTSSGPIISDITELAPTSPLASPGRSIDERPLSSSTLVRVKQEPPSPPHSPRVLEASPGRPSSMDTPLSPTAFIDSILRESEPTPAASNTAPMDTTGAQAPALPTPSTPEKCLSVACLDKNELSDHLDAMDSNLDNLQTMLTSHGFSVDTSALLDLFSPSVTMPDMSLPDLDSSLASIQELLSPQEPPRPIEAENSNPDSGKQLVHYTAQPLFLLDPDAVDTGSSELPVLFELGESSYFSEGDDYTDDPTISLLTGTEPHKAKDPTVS
Nature of the experiment: decrease of HSF1-responsive luciferase luminescence – cell-based, NIH3T3, dose retest, confirmation (AID 2382).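 Note: NIH3T3 fibroblasts with HSF1-driven luciferase reporter stressed by proteasome inhibitor MG132; luminescence from HSF1-driven luciferase expression after 8 hours of MG132 stress.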 The experiment is classed as functional.

Experiment [11] addresses ADP-ribosylation factor GTPase-activating protein 1 (Rattus norvegicus, UniProt Q62848). Nature of the experiment: Fluorescence polarization-based biochemical high throughput dose response screening assay to identify inhibitors of ADP-ribosylation factor GTPase activating protein 1 (ARFGAP1). It is filed as functional.
Experiment [12] is described as follows: general cell-killing toxicity readout – plate reader, dry powder samples, cytotoxicity control for PAX8 inhibitor project, dose response (AID 743021). The experiment is classed as functional, cell-based.
For experiment [13], the target named is T4, Protein disulfide-isomerase (Homo sapiens, UniProt P07237). In words: inhibition of PDI-driven insulin aggregation – biochemical, turbidity, absorbance, cherry-picked samples, dose response (AID 602350). It is filed as functional.
Experiment [14] deals with T5, Beta Lactamase (Pseudomonas aeruginosa, UniProt Q932Y6). In words: BLA reporter interference, concentration series – BLA reporter cells, FRET fluorescence, artefact control for NOD2-RIPK2 interaction inhibitor project, dose response (AID 651552). It is filed as functional, cell-based.
Experiment [15] is described as follows: reduction of Shn3 3'UTR-driven luciferase in osteoblasts – cell-based, Clone20 osteoblasts, firefly luciferase, cherry-picked, dose response (AID 624132).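 Note: firefly luciferase luminescence from reporter carrying the Shn3 3'UTR in osteoblasts.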 It is filed as functional.
Experiment [16] addresses T4, Protein disulfide-isomerase. In words: inhibition of PDI-mediated insulin reduction – biochemical, turbidity, absorbance, cherry-picked samples, set 2, dose response (AID 624274). It is filed as functional.
The nature of experiment [17]: Fluorescence-based cell-based high throughput dose response assay for inhibitors of the interaction of nucleotide-binding oligomerization domain containing 2 (NOD2) and the receptor-interacting serine-threonine kinase 2 (RIPK2). It is filed as functional. Particulars: Homo sapiens.
A short description of experiment [18]: non-specific 3'UTR reporter inhibition in Clone20-Shn3RL – cell-based, Renilla luciferase, cherry-picked, counter-screen for Shn3 inhibitor project, dose response (AID 624133). It is filed as functional.
The nature of experiment [19]: loss of viability in HepG2 cells – cell-based, CellTiter-Glo, cherry-picked, cytotoxicity control for Shn3 inhibitor project, dose response (AID 624134). The experiment is classed as functional. (In general: ATP-based viability assays read luminescence as a measure of living cells.)
The target in experiment [20] is Paired box protein Pax-8 (Homo sapiens, UniProt Q06710). In words: PAX8 transcriptional activity inhibition in RMG-I – RMG-I cells, luciferase, cherry-pick, dose response (AID 687027).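 Note: luciferase reporter driven by Pax8 target thyroperoxidase promoter measured by SteadyGlo luminescence.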 It is filed as functional, cell-based.
For experiment [21], the target named is T6, ATP-dependent translocase ABCB1 (Homo sapiens, UniProt P08183). In words: P-gp JC-1 efflux blockade concentration-response – Jurkat-DNR cells, flow cytometry, set 2, dose response (AID 504569).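 Note: potency of pump inhibitors that raise cellular JC-1 green fluorescence up to the nicardipine level.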 It is filed as functional. Particulars: read-out: EC50_MICROM_. (In general: Flow cytometry measures light scatter and fluorescence of single cells or particles in a stream.)

In experiment [22] the target is T6, ATP-dependent translocase ABCB1. Nature of the experiment: inhibition of BCRP-mediated JC-1 efflux – Ig-MXP3 cells, flow cytometry, set 2, dose response (AID 504566).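 Note: flow cytometry median green fluorescence of retained JC-1 dye; potency of efflux pump inhibition measured as rising substrate retention.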 The experiment is classed as functional. Particulars: read-out: EC50_MICROM_.
A short description of experiment [23]: activation of miR-122 Renilla sensor silencing – cell-based, Huh7 psiCHECK-miR122, Renilla luciferase, cherry-picked, dose response (AID 651956).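 Note: huh7 hepatoma cells stably carrying a psiCHECK-2 miR-122 sensor plasmid; renilla luciferase signal reporting endogenous miR-122 activity after 48 h compound exposure.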 It is filed as functional.
The nature of experiment [24]: general mammalian cell viability loss – activator set, cherry-pick, cytotoxicity control for miR-122 modulator project, dose response (AID 720690).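 Note: HEK293T human cells scored for general mammalian cytotoxicity.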 It is filed as functional, cell-based.
The target in experiment [25] is T7, Beta-lactamase (Pseudomonas aeruginosa, UniProt Q79MP6). In words: […] counterscreen for selective VIM-2 inhibitors: dose response biochemical high throughput screening assay to identify inhibitors of IMP-1 metallo-beta-lactamase.
Experiment [26] addresses T7, Beta-lactamase. Nature of the experiment: inhibition of IMP-1 beta-lactamase activity – biochemical, epi-absorbance, selectivity assay for VIM-2 inhibitor project, dose response (AID 1920).
The target in experiment [27] is T5, Beta Lactamase. In words: concentration-dependent VIM-2 enzyme inhibition – biochemical, epi-absorbance readout, selective inhibitors, dose response (AID 1919).
The target in experiment [28] is Beta-lactamase (Salmonella choleraesuis (strain SC-B67), UniProt Q5J463). Nature of the experiment: Epi-absorbance-based counterscreen for selective VIM-2 inhibitors: dose response biochemical high throughput screening assay to identify inhibitors of TEM-1 serine-beta-lactamase.
Experiment [29] concerns the target T5, Beta Lactamase. In words: VIM-2 CCF2 hydrolysis inhibition, assay artifact filter – biochemical, FRET readout, CCF2 substrate, artefact control for selective VIM-2 inhibitor project, dose response (AID 1926).

T5 sequence (Q932Y6 whole entry): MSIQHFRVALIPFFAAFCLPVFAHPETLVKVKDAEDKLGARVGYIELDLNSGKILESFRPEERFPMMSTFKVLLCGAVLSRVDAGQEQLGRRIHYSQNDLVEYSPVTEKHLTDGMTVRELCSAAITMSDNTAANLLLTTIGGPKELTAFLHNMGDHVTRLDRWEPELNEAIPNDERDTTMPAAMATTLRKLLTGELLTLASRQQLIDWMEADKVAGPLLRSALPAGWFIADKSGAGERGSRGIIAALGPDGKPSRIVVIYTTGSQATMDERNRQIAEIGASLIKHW
T7 sequence (Q79MP6 whole entry): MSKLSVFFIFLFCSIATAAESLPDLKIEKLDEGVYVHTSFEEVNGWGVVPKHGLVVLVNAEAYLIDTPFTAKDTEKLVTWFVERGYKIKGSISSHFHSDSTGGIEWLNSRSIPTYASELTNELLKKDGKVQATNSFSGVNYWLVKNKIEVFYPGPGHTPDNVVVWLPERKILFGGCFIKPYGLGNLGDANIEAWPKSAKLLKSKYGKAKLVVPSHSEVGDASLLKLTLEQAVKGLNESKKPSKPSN
T4 sequence (P07237 whole entry): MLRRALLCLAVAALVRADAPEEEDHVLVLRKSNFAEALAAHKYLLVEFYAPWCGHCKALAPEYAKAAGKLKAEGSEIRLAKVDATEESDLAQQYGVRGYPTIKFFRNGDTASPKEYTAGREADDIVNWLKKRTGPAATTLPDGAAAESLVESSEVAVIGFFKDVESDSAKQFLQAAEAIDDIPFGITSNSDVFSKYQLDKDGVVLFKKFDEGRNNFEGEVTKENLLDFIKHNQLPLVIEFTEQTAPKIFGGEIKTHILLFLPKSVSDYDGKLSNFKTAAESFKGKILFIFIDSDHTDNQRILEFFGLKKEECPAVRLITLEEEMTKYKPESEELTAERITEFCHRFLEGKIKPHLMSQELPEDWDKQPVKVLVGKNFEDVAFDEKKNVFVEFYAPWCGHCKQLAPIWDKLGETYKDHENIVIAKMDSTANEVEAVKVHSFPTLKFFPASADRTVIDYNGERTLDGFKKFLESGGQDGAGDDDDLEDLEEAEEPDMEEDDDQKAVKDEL
T6 sequence (P08183 whole entry): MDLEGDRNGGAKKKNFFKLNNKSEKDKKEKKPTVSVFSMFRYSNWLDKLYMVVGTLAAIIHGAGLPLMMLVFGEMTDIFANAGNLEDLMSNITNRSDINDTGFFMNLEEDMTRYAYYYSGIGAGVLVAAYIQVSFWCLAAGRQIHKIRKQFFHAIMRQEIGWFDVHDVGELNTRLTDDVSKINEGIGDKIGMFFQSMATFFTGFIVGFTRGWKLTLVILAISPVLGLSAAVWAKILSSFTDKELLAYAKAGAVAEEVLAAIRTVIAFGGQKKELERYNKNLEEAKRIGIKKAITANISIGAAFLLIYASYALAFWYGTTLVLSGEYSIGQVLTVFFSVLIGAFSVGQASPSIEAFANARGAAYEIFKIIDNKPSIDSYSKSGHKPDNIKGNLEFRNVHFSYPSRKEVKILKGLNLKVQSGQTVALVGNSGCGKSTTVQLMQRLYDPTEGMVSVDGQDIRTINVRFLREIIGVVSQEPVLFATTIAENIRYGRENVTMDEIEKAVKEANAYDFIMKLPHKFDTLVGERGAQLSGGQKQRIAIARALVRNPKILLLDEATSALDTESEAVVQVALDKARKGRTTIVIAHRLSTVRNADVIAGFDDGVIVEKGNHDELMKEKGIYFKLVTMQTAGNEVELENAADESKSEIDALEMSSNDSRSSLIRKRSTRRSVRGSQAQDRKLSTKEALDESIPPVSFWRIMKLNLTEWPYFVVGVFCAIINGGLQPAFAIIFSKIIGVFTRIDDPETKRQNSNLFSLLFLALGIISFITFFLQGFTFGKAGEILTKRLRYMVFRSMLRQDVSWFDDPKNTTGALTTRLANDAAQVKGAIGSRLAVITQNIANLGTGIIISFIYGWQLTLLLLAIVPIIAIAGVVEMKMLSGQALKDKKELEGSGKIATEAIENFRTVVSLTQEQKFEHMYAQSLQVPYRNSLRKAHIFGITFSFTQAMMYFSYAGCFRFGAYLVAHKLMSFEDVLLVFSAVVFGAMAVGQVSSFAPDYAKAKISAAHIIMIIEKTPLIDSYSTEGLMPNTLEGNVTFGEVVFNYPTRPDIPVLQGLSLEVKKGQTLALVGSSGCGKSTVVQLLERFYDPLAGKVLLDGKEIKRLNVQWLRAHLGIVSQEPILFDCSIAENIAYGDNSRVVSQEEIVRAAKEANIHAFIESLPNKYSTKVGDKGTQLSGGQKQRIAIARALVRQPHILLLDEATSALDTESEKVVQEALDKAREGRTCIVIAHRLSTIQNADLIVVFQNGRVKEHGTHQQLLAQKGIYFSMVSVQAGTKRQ
T1 sequence (P10145 whole entry): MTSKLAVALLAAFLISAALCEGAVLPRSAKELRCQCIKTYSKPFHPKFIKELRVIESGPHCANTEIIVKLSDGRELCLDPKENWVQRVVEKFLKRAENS
Chain of SWI/SNF-related matrix-associated actin-dependent regulator of chromatin subfamily A member 2 (P51531 whole entry): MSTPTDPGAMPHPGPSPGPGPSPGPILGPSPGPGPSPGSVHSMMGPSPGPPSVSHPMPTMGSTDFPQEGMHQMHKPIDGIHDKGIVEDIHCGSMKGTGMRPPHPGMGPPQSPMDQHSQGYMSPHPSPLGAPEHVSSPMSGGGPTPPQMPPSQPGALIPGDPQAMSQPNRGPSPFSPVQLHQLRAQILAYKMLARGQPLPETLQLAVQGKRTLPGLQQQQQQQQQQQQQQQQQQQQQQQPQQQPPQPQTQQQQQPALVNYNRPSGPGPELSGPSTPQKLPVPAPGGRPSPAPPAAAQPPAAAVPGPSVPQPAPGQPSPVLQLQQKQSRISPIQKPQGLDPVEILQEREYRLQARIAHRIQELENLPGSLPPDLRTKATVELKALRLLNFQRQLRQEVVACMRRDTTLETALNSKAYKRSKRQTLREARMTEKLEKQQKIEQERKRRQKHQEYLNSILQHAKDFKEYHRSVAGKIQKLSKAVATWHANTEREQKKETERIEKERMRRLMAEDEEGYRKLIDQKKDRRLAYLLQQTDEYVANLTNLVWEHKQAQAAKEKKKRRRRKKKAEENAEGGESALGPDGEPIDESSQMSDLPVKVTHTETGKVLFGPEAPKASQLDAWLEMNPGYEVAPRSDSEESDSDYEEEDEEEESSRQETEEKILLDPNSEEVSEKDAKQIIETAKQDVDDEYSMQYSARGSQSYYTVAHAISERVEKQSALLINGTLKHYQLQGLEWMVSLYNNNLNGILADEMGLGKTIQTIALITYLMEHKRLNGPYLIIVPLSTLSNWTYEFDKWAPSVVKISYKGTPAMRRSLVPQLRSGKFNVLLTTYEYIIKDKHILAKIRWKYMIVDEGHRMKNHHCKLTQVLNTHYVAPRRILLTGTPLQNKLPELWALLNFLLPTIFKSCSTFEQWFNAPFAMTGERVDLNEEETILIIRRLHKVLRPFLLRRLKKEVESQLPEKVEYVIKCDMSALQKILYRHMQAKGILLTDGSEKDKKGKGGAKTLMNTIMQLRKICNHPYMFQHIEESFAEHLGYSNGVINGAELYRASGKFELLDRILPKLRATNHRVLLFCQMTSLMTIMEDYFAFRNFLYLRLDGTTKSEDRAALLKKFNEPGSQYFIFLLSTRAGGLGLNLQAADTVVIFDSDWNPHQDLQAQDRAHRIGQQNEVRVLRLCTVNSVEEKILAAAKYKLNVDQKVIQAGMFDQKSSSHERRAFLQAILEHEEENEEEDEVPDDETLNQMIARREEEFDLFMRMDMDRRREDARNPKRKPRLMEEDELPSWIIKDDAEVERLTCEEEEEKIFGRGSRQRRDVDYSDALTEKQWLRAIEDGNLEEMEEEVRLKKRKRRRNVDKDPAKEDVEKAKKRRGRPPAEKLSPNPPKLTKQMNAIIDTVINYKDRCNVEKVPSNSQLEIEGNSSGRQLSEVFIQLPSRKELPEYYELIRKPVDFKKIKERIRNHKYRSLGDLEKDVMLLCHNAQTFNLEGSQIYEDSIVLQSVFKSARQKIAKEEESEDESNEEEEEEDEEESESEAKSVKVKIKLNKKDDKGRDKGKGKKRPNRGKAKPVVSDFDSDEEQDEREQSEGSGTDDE
Chain of ADP-ribosylation factor GTPase-activating protein 1 (Q62848 whole entry): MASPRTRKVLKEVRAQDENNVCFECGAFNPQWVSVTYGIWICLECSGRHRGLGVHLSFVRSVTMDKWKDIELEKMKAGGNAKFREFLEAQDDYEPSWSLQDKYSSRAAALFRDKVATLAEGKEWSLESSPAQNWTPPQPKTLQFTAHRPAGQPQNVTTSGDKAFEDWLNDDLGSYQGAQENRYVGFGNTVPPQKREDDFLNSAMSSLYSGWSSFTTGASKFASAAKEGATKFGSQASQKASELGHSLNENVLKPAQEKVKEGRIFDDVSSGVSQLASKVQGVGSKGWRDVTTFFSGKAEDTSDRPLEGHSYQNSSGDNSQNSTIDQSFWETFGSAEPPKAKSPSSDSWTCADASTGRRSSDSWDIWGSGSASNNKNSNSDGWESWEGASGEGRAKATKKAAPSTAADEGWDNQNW
Chain of FAD-linked sulfhydryl oxidase ALR (P55789 whole entry): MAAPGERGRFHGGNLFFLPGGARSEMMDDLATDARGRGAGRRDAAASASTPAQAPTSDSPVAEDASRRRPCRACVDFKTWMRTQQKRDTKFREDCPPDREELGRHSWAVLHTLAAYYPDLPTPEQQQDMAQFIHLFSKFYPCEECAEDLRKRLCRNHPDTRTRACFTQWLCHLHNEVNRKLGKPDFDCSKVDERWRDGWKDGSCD
Chain of Beta-lactamase (Salmonella choleraesuis (strain SC-B67), UniProt Q5J463) (Q5J463 whole entry): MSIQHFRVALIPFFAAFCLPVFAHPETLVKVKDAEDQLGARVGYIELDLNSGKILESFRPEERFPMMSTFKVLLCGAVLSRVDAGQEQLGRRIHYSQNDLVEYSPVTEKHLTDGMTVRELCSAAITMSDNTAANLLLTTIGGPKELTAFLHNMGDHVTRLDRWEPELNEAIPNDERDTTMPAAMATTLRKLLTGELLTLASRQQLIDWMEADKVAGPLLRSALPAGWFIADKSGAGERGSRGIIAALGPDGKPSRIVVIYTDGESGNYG

As a reminder, the AC50 is the concentration giving half of the maximal activity seen. Regarding `COc1ccc(-c2c[nH]nc2-c2ccc(OC)cc2O)cc1`, the AC50 in [1] was 9.8 µM (active). The figures for the IC50 in experiment [2] and in [3] were > 79 µM (inactive) and 43.5 µM (inactive), respectively.

Turning to `COc1cc2nc(N(C)C)nc(N)c2cc1OC`, the EC50 is > 91.2 µM (inactive) in experiment [4], 6.08 µM (active) in [6], 37 µM (inactive) in experiment [7] and > 60 µM (not active) in experiment [8]. Moreover, the half-maximal activity concentration (AC50) in experiment [5] was 12.5 µM (active).

`Cc1c(NC(=O)C2CC(c3ccc(F)cc3)=NO2)c(=O)n(-c2ccccc2)n1C` (configuration not stated): the EC50 was > 100 µM (inactive) in [9] and > 195 µM (not active) in experiment [10].

Consider `Cc1nc(NCc2ccc(S(N)(=O)=O)cc2)c2c(C)c(C)sc2n1`, for which the IC50 in experiment [11] is 42.5 µM (inactive).

For the compound `CS(=O)(=O)c1ccc(C(=O)OCC(=O)N2CCN(CCC3CCCCC3)CC2)cc1[N+](=O)[O-]`, the AC50 in experiment [12] is 27 µM (active); in experiment [13] it was < 0.009 µM (active); in experiment [15] it was 2.41 µM (active); in [16], 0.009 µM (active); in experiment [18], 5.81 µM (active); in experiment [19], 8.73 µM (active). Further, the AC50 in [20] is 6.68 µM (active). Moreover, the IC50 is 11.6 µM (inactive) in experiment [14] and 1.84 µM (active) in experiment [17].

As for `COc1cccc(-c2cc(N3CCN(C(=O)c4ccoc4)CC3)n3nc(-c4cccc(Cl)c4)cc3n2)c1`, the EC50 in [21] is 2.89 µM (active); in [22], 0.76 µM (active). Further, the half-maximal activity concentration (AC50) was 6.22 µM (active) in [15], > 70 µM (inactive) in experiment [18] and 49 µM (active) in experiment [19].

In the case of `C[C@@H]1CN([C@@H](C)CO)C(=O)c2cc(C#CC3CCCCC3)cnc2O[C@H]1CN(C)S(=O)(=O)c1cccc(F)c1`, the AC50 in [23] was 13.9 µM (active); in experiment [24], 24.6 µM (active).

With `CCc1nnc(S)n1/N=C/C(C)=C\c1ccccc1`, the IC50 was > 59.6 µM (inactive) in experiment [25]; > 59.6 µM (inactive) in experiment [26]; 1.23 µM (active) in experiment [27]; > 59.6 µM (inactive) in experiment [28]; 0.332 µM (active) in experiment [29].
